Read-outs that look alike come from different tables or passages of the source.
How the values were obtained:
[1] = Solubility assay (thermodynamic solubility); type: physicochemical; details: thermodynamic from solid, aqueous buffer, mean
Procedure: Solubility of solid compound in aqueous buffer was determined by an equilibrium shake flask method. A saturated solution of drug in solvent (˜2 mg/ml solvent) was prepared and the solution was mixed for 24 h to ensure that equilibrium has been reached. The solution was centrifuged to remove the insoluble fraction and the concentration of the compound in solution was determined by HPLC-UV using a standard calibration curve (Kerns, E. H. et al., Solubility Methods in: Drug-like Properties: Concepts, Structure Design and Methods, p 276-286. Burlington, MA: Academic Press 2008).

[2] = tested on: total-p53 in MCF-7 cells; assay: HTRF total-p53 in MCF-7 cells; type: cell-based; details: Homo sapiens, MCF7, 2 h incubation, median, read-out: HTRF total-p53 MCF-7, IC50 - [mol/l] (median)
Procedure: Day 1: MCF-7 cells were seeded (10,000 cells in 12 μl/well) in a 384-well-Small Volume-plate (Greiner Bio One #784075) in culture medium (RPMI 1640; (Biochrom; #F 1275; without PhenolRed)+FCS (final: 10%); (Biochrom; #S 0415)+Insulin (bovine); (final: 10 μg/mL, Biochrom; #K 3510)+L-Alanyl-L-Glutamine; (final: 2 mM, Biochrom; #K 0302)+Natriumpyruvat; (final: 1 mM, Biochrom; #L 0473)+Non Essentiell Amino Acids; (final: 1×, Biochrom; #K 0293)). The cells were then treated with different compounds or DMSO (added with the HP Dispenser) and incubated for 2 h at 37° C. Following incubation, the cells were lysed in 4 μl of lysis buffer for 1 h shaking at RT. Finally, 4 μl of antibody solution was added and the samples are incubated overnight at RT, shaking.
Total-p53 was detected in a sandwich assay format using 2 different specific antibodies, one labeled with Eu3+-Cryptate (donor) and the second with d2 (acceptor). Kit: HTRF total p53 detection assay (Cisbio Cat: 64T53PEG).
Day 2: the plate was read on PHERAstar FS (BMG Labtech settings; optic module: HTRF; integration start: 60 us; integration time: 400 μs; flash lamp). IC50 values were calculated using the DRC application in ShiNy Analysis Platform-SNAP.”

[3] = biological target: human CSNK1A1 (Homo sapiens (Human), UniProt P48729); assay: CSNK1A1 assay (ADP-Glo, 1 μM ATP); type: biochemical; details: median, read-out: CSNK1A1 Low ATP IC50 [mol/l] (median)
Chain of human CSNK1A1 (P48729 whole entry): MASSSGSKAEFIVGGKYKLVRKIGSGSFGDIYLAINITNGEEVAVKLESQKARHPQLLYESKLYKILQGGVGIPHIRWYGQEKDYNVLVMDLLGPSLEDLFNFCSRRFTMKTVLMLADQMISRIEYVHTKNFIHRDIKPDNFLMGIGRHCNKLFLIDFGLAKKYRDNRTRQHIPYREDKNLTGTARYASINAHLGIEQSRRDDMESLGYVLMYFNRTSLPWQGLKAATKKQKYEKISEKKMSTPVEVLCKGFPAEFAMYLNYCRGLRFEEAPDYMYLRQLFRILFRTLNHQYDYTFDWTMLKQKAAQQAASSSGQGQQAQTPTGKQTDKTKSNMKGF
Procedure: CSNK1A1-inhibitory activity of compounds of the present invention in presence of 1 μM adenosine-tri-phosphate (ATP) was quantified employing the CSNK1A1 assay as described in the following paragraphs. In essence, the enzyme activity is measured by quantification of the adenosine-di-phosphate (ADP), which is generated as a co-product of the enzyme reaction, via the “ADP-Glo™ Kinase Assay” kit from the company Promega. This detection system works as follows: In a first step the ATP not consumed in the kinase reaction is quantitatively converted to CAMP employing an adenylate cyclase (“ADP-Glo-reagent”), then the adenylate cyclase is stopped and the ADP generated in the kinase reaction converted to ATP which generates in a luciferase-based reaction a glow-luminescence signal (“Kinase Detection Reagent”).
Recombinant fusion protein of N-terminal Glutathion-S-Transferase (GST) and full-length human CSNK1A1, expressed by baculovirus infected insect cells and purified via Glutathion affinity chromatography, was purchased from Life Technologies (product no. PV4174) and used as enzyme. As substrate for the kinase reaction the biotinylated peptide biotin-Ahx-KRRRAL-pS-VASLPGL (C-terminus in amide form) was used which can be purchased e.g. from the company Biosyntan (Berlin-Buch, Germany).
For the assay 50 nl of a 100-fold concentrated solution of the test compound in DMSO was pipetted into a white 1536-well microtiter plate (Greiner Bio-One, Frickenhausen, Germany), 2 μL of a solution of CSNK1A1 in aqueous assay buffer [50 mM HEPES pH 7.5, 10% (v/v) glycerol, 10 mM MgCl2, 50 mM NaCl, 1 mM dithiothreitol, 0.01% (w/v) bovine serum albumin, 0.01% (v/v) Triton X-100] were added and the mixture was incubated for 15 min at 22° C. to allow pre-binding of the test compounds to the enzyme before the start of the kinase reaction. Then the kinase reaction was started by the addition of 3 μL of a solution of ATP (1.67 μM=>final conc. in the 5 μL assay volume is 1 μM) and peptide substrate (50 μM=>final conc. in the 5 μL assay volume is 30 μM) in assay buffer and the resulting mixture was incubated for a reaction time of 30 min at 22° C. The concentration of CSNK1A1 was adjusted depending of the activity of the enzyme lot and was chosen appropriate to have the assay in the linear range, a typical concentrations are about 0.0375 ng/μL. The reaction was stopped by the addition of 2.5 μL of “ADP-Glo-reagent” (1:1.5 fold diluted with water) and the resulting mixture was incubated at 22° C. for 1 h to convert the ATP not consumed in the kinase reaction completely to CAMP. Subsequently 2.5 μL of the “kinase detection reagent” (1.2 fold more concentrated than recommended by the producer) were added, the resulting mixture was incubated at 22° C. for 1 h and then the luminescence measured with a suitable measurement instrument (e.g. Viewlux™ from Perkin-Elmer). The amount of emitted light was taken as a measure for the amount of ADP generated and thereby for the activity of the CSNK1A1.
The data were normalised (enzyme reaction without inhibitor=0% inhibition, all other assay components but no enzyme=100% inhibition).

[4] = tested on: HCT 116 cells; assay: HCT 116 cell proliferation assay, CTG; type: cell-based; details: Homo sapiens; HCT 116, CTG, 96 h; median; read-out: 2D-PROLI HCT 116 CTG 96 h, IC50 - [mol/l] (median)
Procedure: 400 HCT 116 cells/30 μL/well were plated in growth medium (DMEM/Ham's F12, 10% FCS) in a 384-well plate (CORNING #3571) at day 1. Reference plate was seeded for time zero determination. All plates were incubated overnight 37° C. Day 2: test compound was added in 7-step dilution and incubate at 37° C. for 96 h. Day 2: time zero plate: 30 μL/well CTG solution (Promega Cell Titer Glo solution; catalog #G755B and G756B) were added, incubated for 30 minutes, read luminescence on PheraStar. Day 6: compound treated plates: 30 μL/well CTG solution (Promega Cell Titer Glo solution; catalog #G755B and G756B) were added, incubated for 30 minutes, luminescence was read on PheraStar. Proliferation was calculated after subtracting time zero luminescence values from day 6 values and comparing to untreated wells. The IC50 values were determined using the four parameter fit.

[5] = read-out: Thermodynamic Solubility [mg/l] (mean)
[6] = read-out: Thermodynamic Solubility [μmol/L] (mean)

| Compound | solubility thermodynamic at 24 h [1, 5] [mg/L] | solubility thermodynamic at 24 h [1, 6] [µmol/L] | IC50 [2] [µM] | IC50 [3] [µM] | IC50 [4] [µM] |
| --- | --- | --- | --- | --- | --- |
| Cc1nc(C)c(CC(=O)Nc2cc(-c3[nH]c4cccnc4c3-c3ccccn3)ccn2)s1 [Example 18, 2-(2,4-dimethylthiazol-5-yl)-N-[4-[3-(2-pyridyl)-^1H-pyrrolo[3,2-b]pyridin-2-yl]-2-pyridyl]acetamide] | 5.4 | 12.3 | 0.0566 | 0.00146 | 0.179 |
| Cn1cc(C(CC(F)F)C(=O)Nc2cc(-c3[nH]c4cccnc4c3-c3ccccn3)ccn2)cn1 (centres unmarked) [Example 19, 4,4-difluoro-2-(1-methylpyrazol-4-yl)-N-[4-[3-(2-pyridyl)-^1H-pyrrolo[3,2-b]pyridin-2-yl]-2-pyridyl]butanamide] | 84 | 177 | 0.407 | 0.00682 | 1.68 |
| O=C(Cc1ccn(CC(F)(F)F)n1)Nc1cc(-c2[nH]c3cccnc3c2-c2ccccn2)ccn1 [Example 20, N-[4-[3-(2-pyridyl)-^1H-pyrrolo[3,2-b]pyridin-2-yl]-2-pyridyl]-2-[1-(2,2,2-trifluoroethyl)pyrazol-3-yl]acetamide] | 23.9 | 50.1 | 0.184 | 0.00188 | 0.344 |
| Cn1nc(CC(=O)Nc2cc(-c3[nH]c4cccnc4c3-c3ccccn3)ccn2)cc1C(F)(F)F [Example 21, 2-[1-methyl-5-(trifluoromethyl)pyrazol-3-yl]-N-[4-[3-(2-pyridyl)-^1H-pyrrolo[3,2-b]pyridin-2-yl]-2-pyridyl]acetamide] | < 0.1 | < 0.21 | 0.0969 | 0.00162 | 0.362 |
| O=C(Cc1ccns1)Nc1cc(-c2[nH]c3cccnc3c2-c2ccccn2)ccn1 [Example 22, 2-isothiazol-5-yl-N-[4-[3-(2-pyridyl)-^1H-pyrrolo[3,2-b]pyridin-2-yl]-2-pyridyl]acetamide] | 12.6 | 30.6 | 0.119 | 0.00147 | 0.357 |
| O=C(Cc1ccno1)Nc1cc(-c2[nH]c3cccnc3c2-c2ccccn2)ccn1 [Example 23, 2-isoxazol-5-yl-N-[4-[3-(2-pyridyl)-^1H-pyrrolo[3,2-b]pyridin-2-yl]-2-pyridyl]acetamide] | 59.5 | 150 | 0.12 | 0.00142 | 0.553 |
| Cc1ncc(CC(=O)Nc2cc(-c3[nH]c4cccnc4c3-c3ccccn3)ccn2)o1 [Example 24, 2-(2-methyloxazol-5-yl)-N-[4-[3-(2-pyridyl)-^1H-pyrrolo[3,2-b]pyridin-2-yl]-2-pyridyl]acetamide] | 26.3 | 64.1 | 0.174 | 0.00195 | 0.418 |
| Cc1nc(CC(=O)Nc2cc(-c3[nH]c4cccnc4c3-c3ccccn3)ccn2)co1 [Example 25, 2-(2-methyloxazol-4-yl)-N-[4-[3-(2-pyridyl)-^1H-pyrrolo[3,2-b]pyridin-2-yl]-2-pyridyl]acetamide] | 23.1 | 56.3 | 0.321 | 0.00279 | 0.985 |
| Cc1cc(CC(=O)Nc2cc(-c3[nH]c4cccnc4c3-c3ccccn3)ccn2)no1 [Example 26, 2-(5-methylisoxazol-3-yl)-N-[4-[3-(2-pyridyl)-^1H-pyrrolo[3,2-b]pyridin-2-yl]-2-pyridyl]acetamide] | 6.1 | 14.9 | 0.176 | 0.00203 | 0.496 |
| O=C(Cc1cc(C2CC2)on1)Nc1cc(-c2[nH]c3cccnc3c2-c2ccccn2)ccn1 [Example 27, 2-(5-cyclopropylisoxazol-3-yl)-N-[4-[3-(2-pyridyl)-^1H-pyrrolo[3,2-b]pyridin-2-yl]-2-pyridyl]acetamide] | < 0.1 | < 0.23 | 0.169 | 0.00157 | 0.489 |
| CC(C)n1ccc(CC(=O)Nc2cc(-c3[nH]c4cccnc4c3-c3ccccn3)ccn2)n1 [Example 28, 2-(1-isopropylpyrazol-3-yl)-N-[4-[3-(2-pyridyl)-^1H-pyrrolo[3,2-b]pyridin-2-yl]-2-pyridyl]acetamide] | < 0.1 | < 0.23 | 0.129 | 0.00228 | 0.586 |
| Cn1nc(CC(=O)Nc2cc(-c3[nH]c4cccnc4c3-c3ccccn3)ccn2)cc1C1CC1 [Example 29, 2-(5-cyclopropyl-1-methyl-pyrazol-3-yl)-N-[4-[3-(2-pyridyl)-^1H-pyrrolo[3,2-b]pyridin-2-yl]-2-pyridyl]acetamide] | < 0.1 | < 0.22 | 0.199 | 0.00221 | 0.518 |
| Cc1nocc1CC(=O)Nc1cc(-c2[nH]c3cccnc3c2-c2ccccn2)ccn1 [Example 30, 2-(3-methylisoxazol-4-yl)-N-[4-[3-(2-pyridyl)-^1H-pyrrolo[3,2-b]pyridin-2-yl]-2-pyridyl]acetamide] | 5.8 | 14.1 | 0.226 | 0.00262 | 1.14 |

From patent publication US20250188075A1, “SUBSTITUTED HETEROCYCLIC CSNK1 INHIBITORS” (The Broad Institute, Inc., priority 2022, published 2025)
